Test results: ChEMBL document CHEMBL4483862, “Open-source discovery of chemical leads for next-generation chemoprotective antimalarials” (2018)

Test system: Plasmodium berghei
Test: Luciferase/luciferin-expressing antifolate-resistant parasites were used to infect a culture of HepG2 cells that were pre-incubated with compounds. Infected hepatocytes emit light due to the luciferase reaction. Assay results are presented as the percent inhibition of light emission compared to control. […]
Type: functional
Conditions: sporozoite; for IC90: read-out: LUCIFERASE INFECTION ASSAY - IC90
[1] = read-out: LUCIFERASE INFECTION ASSAY - IC50

Row | SMILES | IC90 [µM] | further results
1 | O=c1c2ccccc2nc(SCc2cn3cc(Br)ccc3n2)n1-c1ccccc1F | 3.99 | IC50 (HEPG2TOX_HILL_SLOPE 9.92, HEPG2TOX_R_SQUARED 0.174, PBLUC_HILL_SLOPE 13.7, PBLUC_R_SQUARED 0.208, read-out: LUCIFERASE INFECTION ASSAY - IC50): 3.4 µM
2 | O=C(NCc1ccccc1)c1cccc(C2(CNc3cccc(OC(F)(F)F)c3)CC2)c1 | > 10 | IC50 [1]: > 10 µM
3 | C=CCn1c(SCc2ccccn2)nc2sccc2c1=O | > 10 | IC50 (HEPG2TOX_HILL_SLOPE 8.76, HEPG2TOX_R_SQUARED 0.722, PBLUC_HILL_SLOPE 2.66, PBLUC_R_SQUARED 0.469, read-out: LUCIFERASE INFECTION ASSAY - IC50): 8.34 µM
4 | O=C(Cc1nc(C23CC4CC(CC(C4)C2)C3)cs1)NCc1ccccc1 | > 10 | IC50 [1]: > 10 µM
5 | Cc1onc(-c2c(Cl)cccc2Cl)c1-c1csc(-c2ccccc2Cl)n1 | 6.63 | IC50 (FFLUC_HILL_SLOPE 1.25, FFLUC_R_SQUARED 0.188, HEPG2TOX_HILL_SLOPE 2.28, HEPG2TOX_R_SQUARED 0.946, PBLUC_HILL_SLOPE 2.98, PBLUC_R_SQUARED 0.455, read-out: LUCIFERASE INFECTION ASSAY - IC50): 3.17 µM
6 | CCn1nnnc1Sc1nc(C)nc2sc3c(c12)CCC3 | 3.73 | IC50 (HEPG2TOX_HILL_SLOPE 68.5, HEPG2TOX_R_SQUARED 0.626, PBLUC_HILL_SLOPE 11, PBLUC_R_SQUARED 0.226, read-out: LUCIFERASE INFECTION ASSAY - IC50): 3.05 µM
7 | Cn1c(CC(=O)NNC(=O)c2ccccc2Nc2ccccc2)nc2ccccc21 | 3.3 | IC50 (HEPG2TOX_HILL_SLOPE 1.15, HEPG2TOX_R_SQUARED 0.894, PBLUC_HILL_SLOPE 16.3, PBLUC_R_SQUARED 0.746, read-out: LUCIFERASE INFECTION ASSAY - IC50): 2.88 µM
8 | O=c1cc(CN2CCN(C(c3ccc(F)cc3)c3ccc(F)cc3)CC2)nc2ccc(Cl)cn12 | 9.88 | IC50 (PBLUC_HILL_SLOPE 16, PBLUC_R_SQUARED 0.275, read-out: LUCIFERASE INFECTION ASSAY - IC50): 8.61 µM
9 | O=C1NC2(CCc3ccccc32)C(=O)N1Cc1cc2ccccc2nc1Cl (stereo unspecified) | > 10 | IC50 (HEPG2TOX_HILL_SLOPE 1.06, HEPG2TOX_R_SQUARED 0.864, read-out: LUCIFERASE INFECTION ASSAY - IC50): > 10 µM
10 | CN(C)S(=O)(=O)c1cccc(NC(=O)c2nc(Cl)c(Cl)c(Cl)c2Cl)c1 | > 10 | IC50 (HEPG2TOX_HILL_SLOPE 12.2, HEPG2TOX_R_SQUARED 0.865, PBLUC_HILL_SLOPE 2.73, PBLUC_R_SQUARED 0.48, read-out: LUCIFERASE INFECTION ASSAY - IC50): > 10 µM
11 | Cc1ccc2ncnc(NCCc3ccccc3)c2c1 | 2.82 | IC50 (HEPG2TOX_HILL_SLOPE 0.814, HEPG2TOX_R_SQUARED 0.649, PBLUC_HILL_SLOPE 2.08, PBLUC_R_SQUARED 0.658, read-out: LUCIFERASE INFECTION ASSAY - IC50): 0.984 µM
12 | O=S(=O)(c1ccc(Cl)s1)N1CCN(c2ncnc3ccccc23)CC1 | > 10 | IC50 (HEPG2TOX_HILL_SLOPE 2.41, HEPG2TOX_R_SQUARED 0.894, PBLUC_HILL_SLOPE 2.42, PBLUC_R_SQUARED 0.407, read-out: LUCIFERASE INFECTION ASSAY - IC50): 4.98 µM
13 | COc1cccc(-c2cn3c(-c4ccc(C(=O)NC5CC5)cc4)cnc3cn2)c1F | 7.93 | IC50 (PBLUC_HILL_SLOPE 10.9, PBLUC_R_SQUARED 0.72, read-out: LUCIFERASE INFECTION ASSAY - IC50): 6.48 µM
14 | Cc1cc(O)c(C(C)C)cc1NC1=NC(=O)S/C1=C\c1cc(Cl)ccc1OCC(=O)Nc1ccc(Cl)cc1 | 3.24 | IC50 [1]: 2.98 µM
15 | CCc1ccc2nc(NC(=O)CN(C)C(=O)c3ccco3)sc2c1 | > 10 | IC50 [1]: > 10 µM
16 | COc1cc(-c2cnc3cnc(-c4ccccc4Cl)cn23)cc(OC)c1OC | > 8.34 | IC50 (HEPG2TOX_HILL_SLOPE 7.56, HEPG2TOX_R_SQUARED 0.703, PBLUC_HILL_SLOPE 2.2, PBLUC_R_SQUARED 0.686, read-out: LUCIFERASE INFECTION ASSAY - IC50): 6.11 µM
17 | CCOC(=O)c1cnn(-c2ccc(Cc3ccc(-n4ncc(C(=O)OCC)c4C)cc3)cc2)c1C | > 6.98 | IC50 (PBLUC_HILL_SLOPE 1.32, PBLUC_R_SQUARED 0.439, read-out: LUCIFERASE INFECTION ASSAY - IC50): 2.06 µM
18 | c1csc(-c2cnc3sc(NCC4CCOCC4)nn23)c1 | > 10.3 | IC50 [1]: > 10.3 µM
19 | CCn1nc(C)cc1-c1nnc(Cc2ncc([N+](=O)[O-])s2)n1CCCOC | 5.21 | IC50 (HEPG2TOX_HILL_SLOPE 9.43, HEPG2TOX_R_SQUARED 0.891, PBLUC_HILL_SLOPE 6.15, PBLUC_R_SQUARED 0.786, read-out: LUCIFERASE INFECTION ASSAY - IC50): 3.65 µM

Row | SMILES | IC90 [µM] | further results
20 | O=C1CCCN1c1ccc(CNc2ccccc2S(=O)(=O)C(F)(F)F)cc1 | > 10 | IC50 (HEPG2TOX_HILL_SLOPE 0.628, HEPG2TOX_R_SQUARED 0.884, read-out: LUCIFERASE INFECTION ASSAY - IC50): > 10 µM
21 | COc1cc(Nc2ncc3c(n2)CCN(C(=O)Nc2ccc(F)c(Cl)c2)C3)cc(OC)c1OC | > 6.76 | IC50 (HEPG2TOX_HILL_SLOPE 3.56, HEPG2TOX_R_SQUARED 0.576, PBLUC_HILL_SLOPE 6.46, PBLUC_R_SQUARED 0.101, read-out: LUCIFERASE INFECTION ASSAY - IC50): 5.03 µM
22 | CC(C)NC(=O)c1c(NC(=O)c2ccc(Cl)cc2Cl)nc2ccccn12 | 3.78 | IC50 (FFLUC_HILL_SLOPE 0.259, FFLUC_R_SQUARED 0.0893, HEPG2TOX_HILL_SLOPE 15, HEPG2TOX_R_SQUARED 0.814, PBLUC_HILL_SLOPE 11.2, PBLUC_R_SQUARED 0.466, read-out: LUCIFERASE INFECTION ASSAY - IC50): 3.1 µM
23 | CC(=O)c1c(C)[nH]c(C(=O)OCC(=O)/C=C2\N(C)c3ccccc3C2(C)C)c1C | > 10 | IC50 (HEPG2TOX_HILL_SLOPE 1.65, HEPG2TOX_R_SQUARED 0.38, PBLUC_HILL_SLOPE 17.8, PBLUC_R_SQUARED 0.202, read-out: LUCIFERASE INFECTION ASSAY - IC50): 9.63 µM
24 | Clc1ccc(C2=NC(c3ccc(Cl)c(Cl)c3)N=C(c3ccc(Cl)cc3)S2)cc1 | > 7.08 | IC50 (PBLUC_HILL_SLOPE 0.411, PBLUC_R_SQUARED 0.521, read-out: LUCIFERASE INFECTION ASSAY - IC50): > 7.08 µM
25 | Cc1nn(C)c(C)c1NC(=O)C(C)Sc1nnc(Nc2ccc(Oc3ccccc3)cc2)s1 (stereo unspecified) | > 10 | IC50 (PBLUC_HILL_SLOPE 13, PBLUC_R_SQUARED 0.117, read-out: LUCIFERASE INFECTION ASSAY - IC50): 8.97 µM
26 | Cc1cccc(C)c1N(C(=O)CC(c1ccccc1)c1ccccc1)c1nc2ccccc2s1 | > 10 | IC50 (FFLUC_HILL_SLOPE 6.55, FFLUC_R_SQUARED 0.86, PBLUC_HILL_SLOPE 3.66, PBLUC_R_SQUARED 0.235, read-out: LUCIFERASE INFECTION ASSAY - IC50): 7.33 µM
27 | O=C(Nc1nc2ccccc2[nH]1)c1ccoc1 | > 10 | IC50 (HEPG2TOX_HILL_SLOPE 2.41, HEPG2TOX_R_SQUARED 0.931, read-out: LUCIFERASE INFECTION ASSAY - IC50): > 10 µM
28 | O=C(Nc1ncccc1O)c1ccc(-c2ccc3c(c2)OCCO3)s1 | > 10 | IC50 [1]: 7.42 µM
29 | CC(C)(C)NC(=S)Nc1ccc(C(F)(F)F)cc1[N+](=O)[O-] | > 10.3 | IC50 (PBLUC_HILL_SLOPE 10.5, PBLUC_R_SQUARED 0.215, read-out: LUCIFERASE INFECTION ASSAY - IC50): 9.08 µM
30 | COc1cc2[nH]c(CN3CCN(c4ncccn4)CC3)nc(=O)c2cc1OC | > 10 | IC50 (PBLUC_HILL_SLOPE 2.49, PBLUC_R_SQUARED 0.0972, read-out: LUCIFERASE INFECTION ASSAY - IC50): 7.74 µM
31 | Cc1sc2nc(-c3cccnc3)nc(NCCc3ccc(S(N)(=O)=O)cc3)c2c1C | > 10 | IC50 (PBLUC_HILL_SLOPE 1.71, PBLUC_R_SQUARED 0.31, read-out: LUCIFERASE INFECTION ASSAY - IC50): 7.09 µM
32 | CC(=O)C1=NN(c2ccccc2)C(c2ccccc2OCc2ccccc2)N1c1ccc(N2CCOCC2)cc1 (stereo unspecified) | > 10 | IC50 (FFLUC_HILL_SLOPE 2.34, FFLUC_R_SQUARED 0.456, PBLUC_HILL_SLOPE 2.53, PBLUC_R_SQUARED 0.447, read-out: LUCIFERASE INFECTION ASSAY - IC50): 9.41 µM
33 | CC(C)c1ccc(S(=O)(=O)c2ccc(NNC(=O)c3ccccc3OCc3ccc(Cl)cc3)cc2)cc1 | > 10 | IC50 (FFLUC_HILL_SLOPE 4.22, FFLUC_R_SQUARED 0.402, PBLUC_HILL_SLOPE 10.9, PBLUC_R_SQUARED 0.175, read-out: LUCIFERASE INFECTION ASSAY - IC50): 8.49 µM
34 | COc1ccc(NC(=O)c2ccc(O)nc2)cc1S(=O)(=O)N1CCOCC1 | > 10 | IC50 [1]: > 10 µM
35 | CC(C)Cc1ccc(C(NC(=O)CCc2ccc(S(N)(=O)=O)cc2)c2cccs2)cc1 (stereo unspecified) | > 10 | IC50 (PBLUC_HILL_SLOPE 2.82, PBLUC_R_SQUARED 0.609, read-out: LUCIFERASE INFECTION ASSAY - IC50): 7.34 µM
36 | CC(OC(=O)c1cc2c(s1)-c1ccccc1OC2)C(=O)N1CCNC1=O (stereo unspecified) | > 10 | IC50 (PBLUC_HILL_SLOPE 18.2, PBLUC_R_SQUARED 0.638, read-out: LUCIFERASE INFECTION ASSAY - IC50): 9.62 µM
37 | O=C(NNC(=O)c1nn(-c2ccccc2)cc1O)c1ccc2c(c1)OCO2 | 6.28 | IC50 (PBLUC_HILL_SLOPE 71.1, PBLUC_R_SQUARED 0.59, read-out: LUCIFERASE INFECTION ASSAY - IC50): 6.09 µM
38 | Cc1[nH]c2ccc(F)cc2c(=O)c1I | 1.32 | IC50 (PBLUC_HILL_SLOPE 10, PBLUC_R_SQUARED 0.604, read-out: LUCIFERASE INFECTION ASSAY - IC50): 1.06 µM
